The target in test [1] is GDP-bound NRAS wild-type protein (Homo sapiens, UniProt P01111). Description: Binding to NRAS by surface plasmon resonance (SPR), KD and KD ratio to KRAS. As to conditions: ratio of KD for GDP-bound NRAS wild-type protein to KD for KRAS. In outline:
(§1)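 Single-cycle kinetics on GDP-loaded biotin-Avi RAS captured to ~100–300 RU; 75 s ascending injections, 100 µL/min, 30°C. HBS pH 7.4 + 10 mM MgCl2/10 µM GDP/4% DMSO. 1:1 fit, KD.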
Background: SPR reads the build-up and loss of mass on a sensor chip optically.

Another test has as its target HRAS wild-type protein (Homo sapiens, UniProt P01112). Description: Binding to HRAS by surface plasmon resonance (SPR), KD and KD ratio to KRAS. To be noted: ratio of KD for HRAS wild-type protein to KD for KRAS. The essentials:
as §1

For test [2], the system named is human lung cancer strain NCI-H441. Format: cell-based. The essentials:
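Proliferation was scored by […] measured after the reagent was added to cultures kept at 37°C in 5% carbon dioxide.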

Where two headings read alike, the source gives them in different places.

Sequence of GDP-bound NRAS wild-type protein (P01111 whole entry): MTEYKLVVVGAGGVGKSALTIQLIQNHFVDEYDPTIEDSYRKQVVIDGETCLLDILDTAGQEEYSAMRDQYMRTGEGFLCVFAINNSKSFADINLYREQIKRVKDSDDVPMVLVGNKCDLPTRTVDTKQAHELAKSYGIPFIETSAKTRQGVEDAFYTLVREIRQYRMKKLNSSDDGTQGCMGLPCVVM
Sequence of HRAS wild-type protein (P01112 whole entry): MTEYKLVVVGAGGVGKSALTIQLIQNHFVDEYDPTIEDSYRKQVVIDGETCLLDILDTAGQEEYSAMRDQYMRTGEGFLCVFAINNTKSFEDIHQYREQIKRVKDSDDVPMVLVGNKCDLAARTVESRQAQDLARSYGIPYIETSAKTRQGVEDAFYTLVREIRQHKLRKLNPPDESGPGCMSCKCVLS

In general, IC50 refers to the concentration that inhibits the measured activity by half. Turning to `CCC[C@H]1C(=O)N[C@@H]([C@@H](C)CC)C(=O)N(C)CC(=O)N(C)[C@H]2C/C=C\CCN(C2=O)[C@@H](Cc2ccc(C(F)(F)F)cc2)C(=O)N(C)CC(=O)N[C@@H](CCc2ccc3sc(C)c(C)c3c2)C(=O)N2C[C@H](OCC)C[C@H]2C(=O)NC2(CC(C)(C)C2)C(=O)N(C)[C@@H](C2CCCC2)C(=O)N(C)[C@H](C(=O)N(C)C)CC(=O)N1C` [PP2889], the “NRAS /KRAS” value in test [1] is “A (a compound having 10 or more and less than 20 is denoted as A)”. Further, the “HRAS /KRAS” value at HRAS wild-type protein is “A (a compound having 10 or more and less than 20 is denoted as A)”. Moreover, the IC50 in test [2] is 20.9 nM.
Regarding `CCC[C@H]1C(=O)N[C@@H]([C@@H](C)CC)C(=O)N(C)CC(=O)N(C)[C@H]2C/C=C\CCN(C2=O)[C@@H](Cc2ccc(C)cc2)C(=O)N(C)CC(=O)N[C@@H](CCc2cc(Cl)c3sccc3c2)C(=O)N2C[C@H](OCC)C[C@H]2C(=O)NC2(CC(C)(C)C2)C(=O)N(C)[C@@H](C(CC)CC)C(=O)N(C)[C@H](C(=O)N(C)C)CC(=O)N1C` [PP2890], the “NRAS /KRAS” value in test [1] is listed as “AA (a compound having 20 or more is denoted as AA)”. Further, at HRAS wild-type protein, the “HRAS /KRAS” value is “A (a compound having 10 or more and less than 20 is denoted as A)”. In test [2], this compound had an IC50 of 10.3 nM.
On to `CCC[C@H]1C(=O)N[C@@H]([C@@H](C)CC)C(=O)N(C)CC(=O)N(C)[C@H]2C/C=C\CCN(C2=O)[C@@H](Cc2ccc(C(F)(F)F)cc2)C(=O)N(C)CC(=O)N[C@@H](CCc2ccc3sc(F)c(C)c3c2)C(=O)N2C[C@H](OCC)C[C@H]2C(=O)NC2(CC(C)(C)C2)C(=O)N(C)[C@@H](C(CC)CC)C(=O)N(C)[C@H](C(=O)N(C)C)CC(=O)N1C` [PP2892], for which the “NRAS /KRAS” value in test [1] is “A (a compound having 10 or more and less than 20 is denoted as A)”. The “HRAS /KRAS” value at HRAS wild-type protein was “A (a compound having 10 or more and less than 20 is denoted as A)”. The compound also displayed a half-maximal inhibitory concentration (IC50) in test [2] of 8 nM.
Consider `CCC[C@H]1C(=O)N[C@@H]([C@@H](C)CC)C(=O)N(C)CC(=O)N(C)[C@H]2C/C=C\CCN(C2=O)[C@@H](Cc2ccc(C(F)(F)F)cc2)C(=O)N(C)CC(=O)N[C@@H](CCc2ccc3c(C)c(C)n(C)c3c2)C(=O)N2C[C@H](OCC)C[C@H]2C(=O)NC2(CC(C)(C)C2)C(=O)N(C)[C@@H](C2CCCC2)C(=O)N(C)[C@H](C(=O)N(C)C)CC(=O)N1C` [PP2893], for which, in test [1], the “NRAS /KRAS” value was “A (a compound having 10 or more and less than 20 is denoted as A)”. For the same compound, at HRAS wild-type protein, the “HRAS /KRAS” value was “A (a compound having 10 or more and less than 20 is denoted as A)”. In test [2], this compound displayed an IC50 of 72 nM.
For `CCC[C@H]1C(=O)N[C@@H]([C@@H](C)CC)C(=O)N(C)CC(=O)N(C)[C@H]2C/C=C\CCN(C2=O)[C@@H](Cc2ccc(C)cc2)C(=O)N(C)CC(=O)N[C@@H](CCc2ccc3sc(F)c(C)c3c2)C(=O)N2C[C@H](OCC)C[C@H]2C(=O)NC2(CC(C)(C)C2)C(=O)N(C)[C@@H](C(CC)CC)C(=O)N(C)[C@H](C(=O)N(C)C)CC(=O)N1C` [PP2894], the “NRAS /KRAS” value in test [1] was “AA (a compound having 20 or more is denoted as AA)”. Moreover, the “HRAS /KRAS” value on HRAS wild-type protein is “A (a compound having 10 or more and less than 20 is denoted as A)”. In test [2], this compound registered an IC50 of 9.6 nM.
As to `CCC[C@H]1C(=O)N[C@@H]([C@@H](C)CC)C(=O)N(C)CC(=O)N(C)[C@H]2C/C=C\CCN(C2=O)[C@@H](Cc2ccc(C)cc2)C(=O)N(C)CC(=O)N[C@@H](CCc2ccc3c(C)c(C)n(C)c3c2)C(=O)N2C[C@H](OCC)C[C@H]2C(=O)NC2(CC(C)(C)C2)C(=O)N(C)[C@@H](C2CCCC2)C(=O)N(C)[C@H](C(=O)N(C)C)CC(=O)N1C` [PP2895], in test [1], the “NRAS /KRAS” value is “A (a compound having 10 or more and less than 20 is denoted as A)”. Moreover, the “HRAS /KRAS” value at HRAS wild-type protein was “A (a compound having 10 or more and less than 20 is denoted as A)”. In addition, in test [2], the IC50 was 59 nM.
With `CCC[C@H]1C(=O)N[C@@H]([C@@H](C)CC)C(=O)N(C)CC(=O)N(C)[C@H]2C/C=C\CCN(C2=O)[C@@H](Cc2ccc(C(F)(F)F)cc2)C(=O)N(C)CC(=O)N[C@@H](CCc2cc(Cl)c3c(ccn3C)c2)C(=O)N2C[C@H](OCC)C[C@H]2C(=O)NC2(CC(C)(C)C2)C(=O)N(C)[C@@H](C(CC)CC)C(=O)N(C)[C@H](C(=O)N(C)C)CC(=O)N1C` [PP2896], the “NRAS /KRAS” value in test [1] is “A (a compound having 10 or more and less than 20 is denoted as A)”. The “HRAS /KRAS” value on HRAS wild-type protein is “A (a compound having 10 or more and less than 20 is denoted as A)”. The IC50 in test [2] (NCI-H441 cells, 4 days, CellTiter-Glo, read-out: NCl-H441 IC50) is 79.3 nM.
Regarding `CCC[C@H]1C(=O)N[C@@H]([C@@H](C)CC)C(=O)N(C)CC(=O)N(C)[C@H]2C/C=C\CCN(C2=O)[C@@H](Cc2ccc(C(F)(F)F)cc2)C(=O)N(C)CC(=O)N[C@@H](CCc2ccc3c(C)cn(C)c3c2)C(=O)N2C[C@H](OCC)C[C@H]2C(=O)NC2(CC(C)(C)C2)C(=O)N(C)[C@@H](C2CCCC2)C(=O)N(C)[C@H](C(=O)N(C)C)CC(=O)N1C` [PP2897], the “NRAS /KRAS” value in test [1] is “A (a compound having 10 or more and less than 20 is denoted as A)”. The “HRAS /KRAS” value at HRAS wild-type protein is “B (a compound having 3 or more and less than 10 is denoted as B)”. The IC50 in test [2] came to 10.5 nM.
Take `CCC[C@H]1C(=O)N[C@@H]([C@@H](C)CC)C(=O)N(C)CC(=O)N(C)[C@H]2C/C=C\CCN(C2=O)[C@@H](Cc2ccc(C)cc2)C(=O)N(C)CC(=O)N[C@@H](CCc2cc(Cl)c3c(ccn3C)c2)C(=O)N2C[C@H](OCC)C[C@H]2C(=O)NC2(CC(C)(C)C2)C(=O)N(C)[C@@H](C(CC)CC)C(=O)N(C)[C@H](C(=O)N(C)C)CC(=O)N1C` [PP2898]: the “NRAS /KRAS” value in test [1] was “A (a compound having 10 or more and less than 20 is denoted as A)”. Also, at HRAS wild-type protein, the “HRAS /KRAS” value is “A (a compound having 10 or more and less than 20 is denoted as A)”. The IC50 in test [2] turned out to be 98.1 nM.
Consider `CCC[C@H]1C(=O)N[C@@H]([C@@H](C)CC)C(=O)N(C)CC(=O)N(C)[C@H]2C/C=C\CCN(C2=O)[C@@H](Cc2ccc(C)cc2)C(=O)N(C)CC(=O)N[C@@H](CCc2ccc3c(C)cn(C)c3c2)C(=O)N2C[C@H](OCC)C[C@H]2C(=O)NC2(CC(C)(C)C2)C(=O)N(C)[C@@H](C2CCCC2)C(=O)N(C)[C@H](C(=O)N(C)C)CC(=O)N1C` [PP2899], for which the “NRAS /KRAS” value in test [1] was “A (a compound having 10 or more and less than 20 is denoted as A)”. At HRAS wild-type protein, the “HRAS /KRAS” value is “B (a compound having 3 or more and less than 10 is denoted as B)”. Besides, the IC50 in test [2] was 18.8 nM.
With `CCC[C@H]1C(=O)N[C@@H]([C@@H](C)CC)C(=O)N(C)CC(=O)N(C)[C@H]2C/C=C\CCN(C2=O)[C@@H](Cc2ccc(C(F)(F)F)cc2)C(=O)N(C)CC(=O)N[C@@H](CCc2ccc3sc(C)c(C)c3c2)C(=O)N2C[C@H](OCC)C[C@H]2C(=O)NC2(CC(C)(C)C2)C(=O)N(C)[C@@H](C(CC)CC)C(=O)N(C)[C@H](C(=O)N(C)C)CC(=O)N1C` [PP2900], the “NRAS /KRAS” value in test [1] is on record as “AA (a compound having 20 or more is denoted as AA)”. On HRAS wild-type protein, the “HRAS /KRAS” value is “A (a compound having 10 or more and less than 20 is denoted as A)”. Moreover, the IC50 in test [2] turned out to be 14.5 nM.
With `CCC[C@H]1C(=O)N[C@@H]([C@@H](C)CC)C(=O)N(C)CC(=O)N(C)[C@H]2C/C=C\CCN(C2=O)[C@@H](Cc2ccc(C(F)(F)F)cc2)C(=O)N(C)CC(=O)N[C@@H](CCc2ccc3ccn(C)c3c2)C(=O)N2C[C@H](OCC)C[C@H]2C(=O)NC2(CC(C)(C)C2)C(=O)N(C)[C@@H](C2CCCC2)C(=O)N(C)[C@H](C(=O)N(C)C)CC(=O)N1C` [PP2901], the “NRAS /KRAS” value in test [1] was “A (a compound having 10 or more and less than 20 is denoted as A)”. Also, the “HRAS /KRAS” value at HRAS wild-type protein is “A (a compound having 10 or more and less than 20 is denoted as A)”. Further, in test [2], half-maximal inhibition (IC50) was put at 86.5 nM.
On to `CCC[C@H]1C(=O)N[C@@H]([C@@H](C)CC)C(=O)N(C)CC(=O)N(C)[C@H]2C/C=C\CCN(C2=O)[C@@H](Cc2ccc(C)cc2)C(=O)N(C)CC(=O)N[C@@H](CCc2ccc3sc(C)c(C)c3c2)C(=O)N2C[C@H](OCC)C[C@H]2C(=O)NC2(CC(C)(C)C2)C(=O)N(C)[C@@H](C(CC)CC)C(=O)N(C)[C@H](C(=O)N(C)C)CC(=O)N1C` [PP2902], for which the “NRAS /KRAS” value in test [1] was “AA (a compound having 20 or more is denoted as AA)”. Further, at HRAS wild-type protein, the “HRAS /KRAS” value was “A (a compound having 10 or more and less than 20 is denoted as A)”. Besides, half-maximal inhibition in test [2] (IC50) was put at 56.3 nM.
As to `C#CC[C@H]1C(=O)N[C@@H]([C@@H](C)CC)C(=O)N(C)CC(=O)N(C)[C@H]2C/C=C\CCN(C2=O)[C@@H](Cc2ccc(C(F)(F)F)cc2)C(=O)N(C)CC(=O)N[C@@H](CCc2ccc(C(F)(F)F)c(OC)c2)C(=O)N2CCOC[C@H]2C(=O)NC2(CC(C)(C)C2)C(=O)N(C)[C@@H](C2CCCC2)C(=O)N(C)[C@H](C(=O)N(C)C)CC(=O)N1C` [PP2905], the “NRAS /KRAS” value in test [1] is on record as “AA (a compound having 20 or more is denoted as AA)”. The “HRAS /KRAS” value at HRAS wild-type protein is “A (a compound having 10 or more and less than 20 is denoted as A)”. The same compound returned an IC50 in test [2] of 35.2 nM.
For `CC[C@H](C)[C@@H]1NC(=O)[C@H](COC)N(C)C(=O)C[C@@H](C(=O)N(C)C)N(C)C(=O)[C@H](C2CCCC2)N(C)C(=O)C2(CC(C)(C)C2)NC(=O)[C@@H]2CCCCN2C(=O)[C@H](CCc2cc(F)c(C(F)(F)F)c(F)c2)NC(=O)CN(C)C(=O)[C@H](Cc2ccc(C(F)(F)F)cc2)N2CC/C=C\C[C@@H](C2=O)N(C)C(=O)CN(C)C1=O` [PP2907], in test [1], the “NRAS /KRAS” value is reported as “AA (a compound having 20 or more is denoted as AA)”. Moreover, at HRAS wild-type protein, the “HRAS /KRAS” value was “A (a compound having 10 or more and less than 20 is denoted as A)”. In test [2], this compound returned an IC50 of 46.3 nM.

(Values after patent publication EP4603105A1, “PHARMACEUTICAL COMPOSITION CONTAINING CYCLIC COMPOUND HAVING SELECTIVE KRAS INHIBITORY EFFECT AGAINST HRAS AND NRAS” (CHUGAI SEIYAKU KABUSHIKI KAISHA, priority 2022, dated 2024).)
